According to US20240189277A1, “OPHTHALMIC FORMULATIONS FOR SUSTAINED NEUROPROTECTION” (priority 2021, published 2024):

What was measured:
primary mouse RGCs = experiment: Retinal ganglion cell (RGC) viability assay (CellTiter-Glo); format: cell-based; conditions: concentrations as high as 10 mg/mL; with 1 μM sunitinib malate; 72 h
Description: Mouse RGCs were purified as described ny Welsbie, D. S., et al., Proceedings of the National Academy of Sciences of the United States of America, 2013. 110(10): p. 4045-4050. Purified cells were plated on a poly-D-lysine/laminin coated 384-well culture dish at 4,000 cells per well and cultured in Neurobasal media supplemented with B-27, N-2, L-glutamine, and penicillin/streptomycin. Sunitinib malate (1 μM) was dissolved in dimethyl sulfoxide (DMSO) and added at the same time cells were plated (250 nL into 50 μL of media) to promote RGC survival. Then, either PBS or different volumes of sodium pamoate dissolved in DMSO was added at the concentrations indicated (0.1, 1, 10 mg/mL) to determine whether there was any effect on RGC survival. A PBS control was included for each pamoic acid concentration to account for dilutional effects. After cells were cultured for 72 h at 37° C., viability was measured by CellTiter-Glo (Promega) luminescence.

[1] = test system: corneal neovascularization; conditions: rats; cited from earlier work
physchem = conditions: 37 °C, aqueous buffer, thermodynamic from solid
Description: To measure solubility, 5 mg of sunitinib malate or SPC complex was placed in microcentrifuge tubes with 1 mL of PBS. The samples were then placed on an orbital shaker (150 rpm) in an incubator at 37° C. After 7 days, samples were collected and centrifuged at 17,000 rcf for 30 min. The supernatant was collected, and concentrations were measured using HPLC (Shimadzu Prominence LC-20). Supernatant samples were mixed 1:10 with acetonitrile containing 0.1% trifluoroacetic acid. Acetonitrile and water was used as a mobile phase at a ratio of 55:45. Samples were eluted isocratically at a flow rate of 1 mL/min through a C18-reversed phase column at 40° C. UV absorbance was monitored at 431 nm.

| solubility at 7 days (physchem) [µg/mL] | Compound | effect on primary mouse RGC survival compared to PBS (primary mouse RGCs) | effect on corneal neovascularization after subconjunctival injection [1] |
| --- | --- | --- | --- |
| – | O=C(O)c1cc2ccccc2c(Cc2c(O)c(C(=O)O)cc3ccccc23)c1O [Pamoic acid] | no detrimental effect | – |
| 525 ± 63 | CCN(CC)CCNC(=O)c1c(C)[nH]c(/C=C2\C(=O)Nc3ccc(F)cc32)c1C [sunitinib malate, Sunitinib malate] | – | no effect on neovascularization |
